From publication PMC12131194, “Rational design, synthesis, and evaluation of novel polypharmacological compounds targeting NaV1.5, KV1.5, and K2P channels for atrial fibrillation” (The Journal of Biological Chemistry, 2025)

Biological target: T1, TREK-1 (Homo sapiens, UniProt O95069)
T1 construct: expressed in transfected cells; host or cells: Xenopus laevis oocytes injected with cRNA
T1 sequence (O95069 1-426): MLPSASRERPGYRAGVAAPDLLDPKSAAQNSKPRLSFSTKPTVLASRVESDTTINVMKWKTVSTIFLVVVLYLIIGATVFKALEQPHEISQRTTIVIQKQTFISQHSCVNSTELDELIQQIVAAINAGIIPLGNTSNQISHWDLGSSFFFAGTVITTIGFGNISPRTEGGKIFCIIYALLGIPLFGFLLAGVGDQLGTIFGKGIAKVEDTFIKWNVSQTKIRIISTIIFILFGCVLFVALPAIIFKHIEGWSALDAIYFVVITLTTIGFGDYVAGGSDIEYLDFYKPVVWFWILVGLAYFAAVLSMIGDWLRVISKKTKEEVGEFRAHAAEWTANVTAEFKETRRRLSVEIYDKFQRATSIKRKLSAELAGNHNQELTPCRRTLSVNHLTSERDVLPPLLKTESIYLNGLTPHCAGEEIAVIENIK
Assay: TEVC selectivity in X. laevis oocytes, TREK-1
Type: cell-based
Details: mean ± SD, n = 4, read-out: Effect on TREK-1 (inhibition; negative = activating)
Method: After confirming compound 6f simultaneous blockade of TASK-1, KV1.5, and NaV1.5, other cardiac channels (Kir2.1, TREK-1, TASK-4) were tested for selectivity at 100 μM (Fig. 8).
To obtain X. laevis oocytes, the frogs were anesthetized with 2 g/L of tricaine methanesulfonate, and the ovarian lobes were mechanically separated with forceps. The oocytes were incubated for 120 min in an OR2 solution containing in mM: NaCl 82.5, KCl 2, MgCl2 1, HEPES 5 (pH 7.5) supplemented with 2 mg/ml of collagenase II (Sigma) to remove residual connective tissue and obtain individual oocytes. […]
In order to overexpress the channel in the oocyte, each of the channels to be measured was subcloned (complementary DNA (cDNA); human TASK-1 (KCNK3, NM_002246), h KV1.5 (KCNA5, NM_002234), h NaV1.5 (hH1, M77235), TASK-4/TALK-2 (KCNK17, NM_AF358910), TREK-1 (KCNK2, AF004711) and Kir2.1 (KCNJ2, NM_017296) into pSGEM, pBF1 or pSP64 expression vector, and the cDNA was linearized with NheI or MluI. Complementary RNA (cRNA) was synthesized with the mMESSAGE mMACHINE-Kit (Ambion). The quality of the cRNA was tested on an agarose gel by electrophoresis. cRNA was quantified using a UV-Vis spectrophotometer (NanoDrop 2000). […] After this time, the overexpression of each channel was monitored through electrophysiology. […]

- inhibition at 100 µM: -8.71%
SMILES: CCCCN(CCCC)CC(=O)Nc1ccc(OC)cc1OC [Compound 6f, 2-(dibutylamine)-N-(2,4-dimethoxiphenyl)acetamide]
